Source: patent publication US20230026163A1, “ANTICANCER COMPOUND AND MEDICAL USE THEREOF” (ASCENTAWITS PHARMACEUTICALS, LTD., priority 2019, published 2023)
pIC50: −log10 of the molar value.

How the values were obtained:
[1] = Hepatomicrosome stability, dog; conditions: for Remaining percentage after 30 minutes: Dog, 2 μM
Description: (§1) 1a) With NADPH: 10 μL of 20 mg/mL of hepatomicrosome and 40 μL of 10 mM of NADPH were added to medium. The final concentrations of hepatomicrosome and NADPH were 0.5 mg/mL and 1 mM, respectively.
(§2) 1b) Without NADPH: 10 μL of 20 mg/mL hepatomicrosome and 40 μL of ultra-pure H2O were added to medium. The final concentration of hepatomicrosome was 0.5 mg/mL.
(§3) 3) 3) Aliquots of 50 μL from the reaction solutions at 0 minute and 30 minutes were taken. The reaction solutions were stopped by adding 4 volumes of cold acetonitrile and 4 internal standards (IS internal standard, 100 nM of Alprazolam, 200 nM of caffeine, 200 nM of Labetalol, and 2 μM of Ketoprofen) to stop the reaction solution. The samples were centrifuged at 3,220 g for 40 minutes. Aliquots of 100 μL of the supernatants were mixed with 100 μL of ultra-pure H2O. Then, the mixtures were used for LC-MS/MS analysis. All experiments were performed in duplicate. The test results were as follow.

[2] = Hepatomicrosome stability, human; conditions: for Remaining percentage after 30 minutes: Human, 2 μM
Description: as §1, §2, §3

NCI-H460 cells = test: CDX model, subcutaneously transplanted human lung cancer; format: in vivo, BALB/c nude mice; conditions: for Relative tumor inhibition rate TGI (%): 31st day after inoculation
Description: BALB/c nude mice were subcutaneously inoculated with human lung cancer cells, NCI-H460 cells, to establish a subcutaneously transplanted tumor model of human lung cancer. The experiment was divided into a 20 mg/kg of the test drug compound 01 group, a 40 mg/kg of the test drug compound 01 group, and a vehicle control group with 10% of ethanol+10% of polyoxyethylene (35) castor oil, Cremophor EL+80% of 5% of glucose injection (pH7.4), and 6 mice in each group. […] The 40 mg/kg of the test drug compound 01 group was administered by tail vein injection, once every three weeks, for a total of 2 administrations, and observed for a week after the second administration. The 20 mg/kg of the test drug compound 01 group was administered by intraperitoneal injection once a day for 5 consecutive days and observed for 24 days. The efficacy was evaluated based on the relative tumor inhibition rate TGI (%). The safety evaluation was performed based on changes in animal body weight and mortality. The administered doses of compound 01 were determined based on the MTD experiment.
The tumor volume of each group of mice was measured on different days respectively, and the average value was obtained.

H460 = test: Cytotoxicity on cell lines of different species: H460; format: cell-based; conditions: NCI-H460, 72 h; H460, Human; exposure time: 3 days
[3] = test system: GA6201 tumor of HuPrime® model; test: PDX model, subcutaneously transplanted human gastric cancer; format: in vivo, BALB/c nude mice; conditions: for Tumor volume: ifosfamide 60 mg/kg i.p., compound 01 5-50 mg/kg
Description: BALB/c nude mice were subcutaneously inoculated with GA6201 tumor of HuPrime® model to establish a subcutaneously transplanted tumor model of human gastric cancer. The experiment was divided into a vehicle control group 1 with normal saline (pH 7.0-7.6), a control group 2 with ifosfamide (60 mg/kg), and an Experimental group (Exp. group) with compound 01 (5-50 mg/kg), and 5 mice per group.
The Exp. group with compound 01 (5-50 mg/kg) was administered by intraperitoneal injection for 5 consecutive days and stopped for 2 days a week, and administered for 2 weeks. Then, the dose was changed to 10 mg/kg by intraperitoneal injection, administered daily for 4 days. After that, the dose and administration method were changed. The dose was 20 mg/kg by tail vein injection for 1 day. After 10 days of drug withdrawal, the dose was changed again. The dose was 50 mg/kg by tail vein injection, once a week, for 2 weeks, and one week of observation. […] The safety was evaluated according to the changes in animal body weight and death.
The tumor volume of each group of mice was measured on different days, and the average value was obtained.

AA8 = test: Cytotoxicity on cell lines of different species: AA8; format: cell-based

Structure (SMILES): O=[N+]([O-])c1ccc(C(OP(=O)(N2CC2)N2CC2)C(F)(F)F)c2ccccc12 (stereo not drawn) [Compound 01]
- Remaining percentage after 30 minutes ([1]; with NADPH): 31.16%
- Remaining percentage after 30 minutes ([1]; without NADPH): 101.62%
- Stability in hepatomicrosomes (conclusion) ([1]; dog): unstable
- Remaining percentage after 30 minutes ([2]; with NADPH): 96.39%
- Remaining percentage after 30 minutes ([2]; without NADPH): 82.15%
- Stability in hepatomicrosomes (conclusion) ([2]; human): relatively stable
- Relative tumor inhibition rate TGI (%) (NCI-H460 cells; 20 mg/kg, QD×5×1 week, IP, Exp. group 8): 76.22%
- Relative tumor inhibition rate TGI (%) (NCI-H460 cells; 40 mg/kg, Q3W×2, IV, Exp. group 7): 66.87%
- Tumor volume (NCI-H460 cells; day 7, Exp. group 7, 40 mg/kg, Q3W×2, IV): 143.84 mm^3
- Tumor volume (NCI-H460 cells; day 7, Exp. group 8, 20 mg/kg, QD×5×1 week, IP): 144.63 mm^3
- Tumor volume (NCI-H460 cells; day 10, Exp. group 7, 40 mg/kg, Q3W×2, IV): 184.06 mm^3
- Tumor volume (NCI-H460 cells; day 10, Exp. group 8, 20 mg/kg, QD×5×1 week, IP): 173.09 mm^3
- Tumor volume (NCI-H460 cells; day 14, Exp. group 7, 40 mg/kg, Q3W×2, IV): 153.75 mm^3
- Tumor volume (NCI-H460 cells; day 14, Exp. group 8, 20 mg/kg, QD×5×1 week, IP): 152.99 mm^3
- Tumor volume (NCI-H460 cells; day 17, Exp. group 7, 40 mg/kg, Q3W×2, IV): 159.72 mm^3
- Tumor volume (NCI-H460 cells; day 17, Exp. group 8, 20 mg/kg, QD×5×1 week, IP): 130.06 mm^3
- Tumor volume (NCI-H460 cells; day 21, Exp. group 7, 40 mg/kg, Q3W×2, IV): 218.13 mm^3
- Tumor volume (NCI-H460 cells; day 21, Exp. group 8, 20 mg/kg, QD×5×1 week, IP): 129.66 mm^3
- Tumor volume (NCI-H460 cells; day 24, Exp. group 7, 40 mg/kg, Q3W×2, IV): 291.07 mm^3
- Tumor volume (NCI-H460 cells; day 24, Exp. group 8, 20 mg/kg, QD×5×1 week, IP): 164.63 mm^3
- Tumor volume (NCI-H460 cells; day 28, Exp. group 7, 40 mg/kg, Q3W×2, IV): 520.17 mm^3
- Tumor volume (NCI-H460 cells; day 28, Exp. group 8, 20 mg/kg, QD×5×1 week, IP): 272.20 mm^3
- Tumor volume (NCI-H460 cells; day 31, Exp. group 7, 40 mg/kg, Q3W×2, IV): 580.70 mm^3
- Tumor volume (NCI-H460 cells; day 31, Exp. group 8, 20 mg/kg, QD×5×1 week, IP): 447.50 mm^3
- Tumor volume (NCI-H460 cells; day 35, Exp. group 7, 40 mg/kg, Q3W×2, IV): 447.32 mm^3
- Tumor volume (NCI-H460 cells; day 35, Exp. group 8, 20 mg/kg, QD×5×1 week, IP): 651.58 mm^3
- pIC50 (H460): 7.00
- Inhibition of tumor growth compared with ifosfamide (conclusion) ([3]; GA6201 PDX): obvious advantages in inhibiting tumor growth
- Tumor volume ([3]; day 0): 94.24 mm^3
- Tumor volume ([3]; day 3): 121.79 mm^3
- Tumor volume ([3]; day 7): 123.19 mm^3
- Tumor volume ([3]; day 10): 153.46 mm^3
- Tumor volume ([3]; day 14): 191.17 mm^3
- Tumor volume ([3]; day 17): 219.91 mm^3
- Tumor volume ([3]; day 21): 246.57 mm^3
- Tumor volume ([3]; day 24): 271.72 mm^3
- Tumor volume ([3]; day 28): 280.86 mm^3
- Tumor volume ([3]; day 31): 270.68 mm^3
- Tumor volume ([3]; day 35): 299.31 mm^3
- Tumor volume ([3]; day 38): 277.17 mm^3
- Tumor volume ([3]; day 42): 300.46 mm^3
- Tumor volume ([3]; day 45): 342.08 mm^3
- Tumor volume ([3]; day 49): 287.47 mm^3
- pIC50 (AA8; CHO-AA8, 72 h, AA8, Rat, exposure time: 3 days): 4.96
- Multiple: Rat/Human (AA8; IC50 AA8 / IC50 H460): 110
